Several values for one entry are separate records, joined by “and”; a condition that tells them apart may be missing. Equal entries are not always repeated.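 Five concentrations, 48 hours, 96-well plates. GI50: concentration for 50% inhibition of growth. Definition used: TGI = concentration required for complete inhibition of growth.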
Tests used:
Test in all cases: NCI-60 cell line screen, 48 h; in the data active = GI50 below about 0.43 µM; inactive = the rest
PC-3 prostate = system: PC-3 prostate
SNB-75 CNS = system: SNB-75 CNS
CCRF-CEM leukemia = system: CCRF-CEM leukemia
SNB-19 CNS = system: SNB-19 CNS
K-562 leukemia = system: K-562 leukemia
HL-60(TB) leukemia = system: HL-60(TB) leukemia
UACC-257 melanoma = system: UACC-257 melanoma
COLO 205 colon = system: COLO 205 colon
SK-MEL-28 melanoma = system: SK-MEL-28 melanoma
U251 CNS = system: U251 CNS
HCC-2998 colon = system: HCC-2998 colon
HOP-92 NSCLC = system: HOP-92 NSCLC
OVCAR-5 ovarian = system: OVCAR-5 ovarian
SF-295 CNS = system: SF-295 CNS
786-0 renal = system: 786-0 renal
SK-MEL-5 melanoma = system: SK-MEL-5 melanoma
MCF7 breast = system: MCF7 breast
NCI-H522 lung = system: NCI-H522 lung
IGROV1 ovarian = system: IGROV1 ovarian
OVCAR-3 ovarian = system: OVCAR-3 ovarian
A498 renal = system: A498 renal
OVCAR-8 ovarian = system: OVCAR-8 ovarian
RPMI-8226 leukemia = system: RPMI-8226 leukemia
MALME-3M melanoma = system: MALME-3M melanoma
KM12 colon = system: KM12 colon
A549 NSCLC = system: A549 NSCLC
UO-31 renal = system: UO-31 renal
ACHN renal = system: ACHN renal
SK-OV-3 ovarian = system: SK-OV-3 ovarian
HCT-116 colon = system: HCT-116 colon
SF-268 CNS = system: SF-268 CNS
HT29 colon = system: HT29 colon
DU-145 prostate = system: DU-145 prostate
M14 melanoma = system: M14 melanoma
NCI-H226 lung = system: NCI-H226 lung
TK-10 renal = system: TK-10 renal
MOLT-4 leukemia = system: MOLT-4 leukemia
EKVX NSCLC = system: EKVX NSCLC
SW-620 colon = system: SW-620 colon
NCI/ADR-RES ovarian = system: NCI/ADR-RES ovarian
UACC-62 melanoma = system: UACC-62 melanoma
T-47D breast = system: T-47D breast
HS 578T breast = system: HS 578T breast
LOX IMVI melanoma = system: LOX IMVI melanoma
HOP-62 NSCLC = system: HOP-62 NSCLC
MDA-MB-435 = system: MDA-MB-435
BT-549 breast = system: BT-549 breast
SF-539 CNS = system: SF-539 CNS
OVCAR-4 ovarian = system: OVCAR-4 ovarian
NCI-H23 lung = system: NCI-H23 lung
RXF 393 renal = system: RXF 393 renal
NCI-H460 lung = system: NCI-H460 lung
MDA-MB-231 breast = system: MDA-MB-231 breast
HCT-15 colon = system: HCT-15 colon
SK-MEL-2 melanoma = system: SK-MEL-2 melanoma
CAKI-1 renal = system: CAKI-1 renal
SN12C renal = system: SN12C renal

COc1nc(N)nc2c1ncn2C1OC(CO)C(O)C1O (stereo not given)
2.25 mM: TGI (COLO 205 colon)
inactive: GI50 (PC-3 prostate) > 5 mM | GI50 (SNB-75 CNS) > 5 mM | GI50 (CCRF-CEM leukemia) 8.46 µM | GI50 (SNB-19 CNS) > 5 mM | GI50 (K-562 leukemia) > 5 mM | GI50 (HL-60(TB) leukemia) 1.19 mM | GI50 (COLO 205 colon) 520 µM | GI50 (SK-MEL-28 melanoma) 2.28 mM | GI50 (U251 CNS) > 5 mM | GI50 (HCC-2998 colon) > 5 mM | GI50 (HOP-92 NSCLC) 2.64 mM | GI50 (OVCAR-5 ovarian) > 5 mM | GI50 (SF-295 CNS) > 5 mM | GI50 (786-0 renal) > 5 mM | GI50 (SK-MEL-5 melanoma) 164 µM | GI50 (MCF7 breast) 3.8 mM | GI50 (NCI-H522 lung) > 5 mM | GI50 (OVCAR-3 ovarian) > 5 mM | GI50 (A498 renal) > 5 mM | GI50 (OVCAR-8 ovarian) > 5 mM | GI50 (RPMI-8226 leukemia) 3.58 mM | GI50 (MALME-3M melanoma) 1.15 mM | GI50 (KM12 colon) > 5 mM | GI50 (A549 NSCLC) 701 µM | GI50 (UO-31 renal) > 5 mM | GI50 (ACHN renal) 723 µM | GI50 (SK-OV-3 ovarian) 2.43 mM | GI50 (HCT-116 colon) > 5 mM | GI50 (SF-268 CNS) > 5 mM | GI50 (HT29 colon) > 5 mM | GI50 (DU-145 prostate) > 5 mM | GI50 (M14 melanoma) > 5 mM | GI50 (NCI-H226 lung) > 5 mM | GI50 (TK-10 renal) > 5 mM | GI50 (MOLT-4 leukemia) 5.7 µM and 19.5 µM | GI50 (EKVX NSCLC) > 5 mM | GI50 (SW-620 colon) > 5 mM | GI50 (NCI/ADR-RES ovarian) > 5 mM | GI50 (UACC-62 melanoma) > 5 mM | GI50 (T-47D breast) > 5 mM | GI50 (HS 578T breast) > 5 mM | GI50 (LOX IMVI melanoma) 3.54 mM | GI50 (HOP-62 NSCLC) 2.01 mM | GI50 (MDA-MB-435) > 5 mM | GI50 (BT-549 breast) > 5 mM | GI50 (SF-539 CNS) 3.8 mM | GI50 (OVCAR-4 ovarian) > 5 mM | GI50 (NCI-H23 lung) 909 µM | GI50 (RXF 393 renal) 2320 nM | GI50 (NCI-H460 lung) 1.65 mM | GI50 (MDA-MB-231 breast) > 5 mM | GI50 (HCT-15 colon) > 5 mM | GI50 (SK-MEL-2 melanoma) 2.57 mM | GI50 (CAKI-1 renal) 3.12 mM | GI50 (SN12C renal) 3.28 mM
2.26 mM: TGI (MOLT-4 leukemia)
> 5 mM: TGI (PC-3 prostate) | TGI (SNB-75 CNS) | TGI (SNB-19 CNS) | TGI (K-562 leukemia) | TGI (HL-60(TB) leukemia) | TGI (UACC-257 melanoma) | TGI (SK-MEL-28 melanoma) | TGI (U251 CNS) | TGI (HCC-2998 colon) | TGI (HOP-92 NSCLC) | TGI (OVCAR-5 ovarian) | TGI (SF-295 CNS) | TGI (786-0 renal) | TGI (SK-MEL-5 melanoma) | TGI (MCF7 breast) | TGI (NCI-H522 lung) | TGI (IGROV1 ovarian) | TGI (OVCAR-3 ovarian) | TGI (A498 renal) | TGI (OVCAR-8 ovarian) | TGI (RPMI-8226 leukemia) | TGI (MALME-3M melanoma) | TGI (KM12 colon) | TGI (A549 NSCLC) | TGI (UO-31 renal) | TGI (ACHN renal) | TGI (SK-OV-3 ovarian) | TGI (HCT-116 colon) | TGI (SF-268 CNS) | TGI (HT29 colon) | TGI (DU-145 prostate) | TGI (M14 melanoma) | TGI (NCI-H226 lung) | TGI (TK-10 renal) | TGI (EKVX NSCLC) | TGI (SW-620 colon) | TGI (NCI/ADR-RES ovarian) | TGI (UACC-62 melanoma) | TGI (T-47D breast) | TGI (HS 578T breast) | TGI (LOX IMVI melanoma) | TGI (HOP-62 NSCLC) | TGI (MDA-MB-435) | TGI (BT-549 breast) | TGI (SF-539 CNS) | TGI (OVCAR-4 ovarian) | TGI (NCI-H23 lung) | TGI (NCI-H460 lung) | TGI (MDA-MB-231 breast) | TGI (HCT-15 colon) | TGI (SK-MEL-2 melanoma) | TGI (CAKI-1 renal) | TGI (SN12C renal)
